Data: patent publication US9447148B2, “Melanocortin-1 receptor-specific cyclic peptides” (Palatin Technologies, Inc., priority 2009, dated 2016)
pEC50, pKi: −log10 of the molar value. Bridge positions count the residues as written; N and C are the ends. Square brackets hold non-standard residues; d marks the D form. Peptide text beside a SMILES is read from it. dPhe(4-Me) = Cc1ccc(C[C@@H](N)C(=O)O)cc1; Nle = CCCC[C@H](N)C(=O)O; Orn = NCCC[C@H](N)C(=O)O; Dab = NCC[C@H](N)C(=O)O

Legend:
[1] = target: hMCR-1a (Homo sapiens (Human), UniProt Q01726); assay: Competitive inhibition binding assay using [I125]-NDP-α-MSH, hMCR-1a; settings: membrane homogenates of HEK-293 cells, human recombinant receptor, averaged, read-out: MC-1 Ki (average)
Description: (§1) A competitive inhibition binding assay was performed using membrane homogenates prepared from HEK-293 cells that express recombinant hMCR-1a or hMCR-4 (in each instance where the h prefix refers to human), or alternatively membrane homogenates from B16-F10 mouse melanoma cells containing endogenous murine MCR-1. In the examples that follow, all MCR-1 and MCR-4 values are for human recombinant receptors, unless otherwise noted. Assays were performed in 96 well polypropylene round-bottom plates (VWR catalog number 12777-030). […] After incubation for 90 minutes at 37° C., the assay mixture was filtered onto GF/B Unifilter plates (Perkin-Elmer catalog number 6005177) and washed with 3 mL of ice-cold buffer per well. Filters were air dried and 35 μL of scintillation cocktail added to each well. Plates were counted in a Microbeta counter for bound radioactivity. […] Each assay was conducted in duplicate and the actual mean values are described, with results less than 0% reported as 0%. Ki values for peptides of the present invention were determined using Graph-Pad Prism® curve-fitting software.
(§2) Peptides of the following structures were synthesized and averaged MCR-1 and MCR-4 Ki values were determined as indicated. […] All results are expressed in nM except for Emax values, which are percentage values. Peptides with the captioned primary sequence were synthesized and purified as described in Section 5 above, with the resulting peptide having the structure depicted.

[2] = target: hMCR-4 (Homo sapiens (Human), UniProt P32245); assay: Competitive inhibition binding assay using [I125]-NDP-α-MSH, hMCR-4; settings: membrane homogenates of HEK-293 cells, human recombinant receptor, averaged, read-out: MC-4 Ki (average)
Description: as §1, §2

[3] = target: hMCR-1 (Homo sapiens (Human), UniProt Q01726); assay: Assay for agonist activity: intracellular cAMP accumulation in HBL human melanoma cells; type: cell-based; settings: for pEC50: HBL cells expressing hMCR-1, averaged, read-out: MC-1 EC50 (average; cAMP HBL); for MC-1 Emax (average; cAMP HBL): HBL cells, maximum efficacy compared to reference agonist NDP-α-MSH
Description: Confluent HBL cells that express hMCR-1 or HEK-293 cells that express recombinant hMCR-4 were detached from culture plates by incubation in enzyme-free cell dissociation buffer. Dispersed cells were suspended in Earle's Balanced Salt Solution containing 10 mM HEPES (pH 7.5), 1 mM MgCl2, 1 mM glutamine, 0.5% albumin and 0.3 mM 3-isobutyl-1-methyl-xanthine (IBMX), a phosphodiesterase inhibitor. The cells were plated in 96-well plates at a density of 0.4×10^5 cells per well for HBL cells and 0.5×10^5 cells per well for HEK-293 cells and pre-incubated for 10 minutes. Cells were exposed for 15 minutes at 37° C. to peptides of the present invention dissolved in DMSO (final DMSO concentration of 1%) at a concentration range of 0.05-5000 nM in a total assay volume of 200 μL. […] Data analysis was performed by nonlinear regression analysis with Graph-Pad Prism® software.
as §2

Sequence of hMCR-1a (Q01726 whole entry): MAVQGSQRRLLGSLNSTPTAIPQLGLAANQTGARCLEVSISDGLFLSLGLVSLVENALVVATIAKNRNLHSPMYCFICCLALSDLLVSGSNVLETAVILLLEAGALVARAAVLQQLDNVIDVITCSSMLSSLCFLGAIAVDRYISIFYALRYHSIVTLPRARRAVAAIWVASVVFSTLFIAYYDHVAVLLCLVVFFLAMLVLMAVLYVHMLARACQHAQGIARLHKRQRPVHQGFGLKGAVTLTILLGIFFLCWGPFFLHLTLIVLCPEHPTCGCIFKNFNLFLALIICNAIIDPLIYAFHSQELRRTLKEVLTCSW
Sequence of hMCR-1 (Q01726 whole entry): as above
Sequence of hMCR-4 (P32245 whole entry): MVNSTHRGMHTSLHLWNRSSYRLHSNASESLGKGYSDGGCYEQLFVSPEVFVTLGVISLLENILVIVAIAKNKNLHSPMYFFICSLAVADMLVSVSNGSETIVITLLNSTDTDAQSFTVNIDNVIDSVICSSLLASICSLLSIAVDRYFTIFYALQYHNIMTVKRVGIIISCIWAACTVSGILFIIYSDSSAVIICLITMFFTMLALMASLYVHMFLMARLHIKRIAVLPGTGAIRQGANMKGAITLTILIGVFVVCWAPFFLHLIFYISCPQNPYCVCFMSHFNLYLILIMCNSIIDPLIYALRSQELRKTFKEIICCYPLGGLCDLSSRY

| Structure (SMILES) | pKi [1] | pKi [2] | pEC50 [3] | MC-1 Emax (average; cAMP HBL) [3] |
| --- | --- | --- | --- | --- |
| CCCC[C@H](NC(C)=O)C(=O)N[C@H]1CCC(=O)NCC[C@@H](C(=O)N[C@@H](Cc2c[nH]c3ccccc23)C(N)=O)NC(=O)CNC(=O)[C@@H](Cc2ccccc2)NC(=O)[C@H](Cc2c[nH]cn2)NC1=O [Example 9.47, Ac-Nle-cyclo(Glu-His-D-Phe-Gly-Dab)-Trp-NH2] (Ac-[Nle]EH[dF]G[Dab]W-NH2; lactam 2-6) |  |  |  | 59% |
| CCCC[C@H](NC(C)=O)C(=O)N[C@H]1CCC(=O)NCC[C@@H](C(N)=O)NC(=O)[C@H](CCCNC(=N)N)NC(=O)[C@@H](Cc2ccccc2)NC(=O)[C@H](Cc2c[nH]cn2)NC1=O [Example 9.32, Ac-Nle-cyclo(Glu-His-D-Phe-Arg-Dab)-NH2] (Ac-[Nle]EH[dF]R[Dab]-NH2; lactam 2-6) | 8.15 | 5.00 | 9.49 |  |
| CCCC[C@H](NC(C)=O)C(=O)N[C@H]1CCC(=O)NCC[C@@H](C(=O)N[C@@H](Cc2c[nH]c3ccccc23)C(N)=O)NC(=O)CNC(=O)[C@@H](Cc2ccccc2)NC(=O)[C@H](Cc2c[nH]cn2)NC1=O [Example 9.34, Ac-Nle-cyclo(Glu-His-D-Phe-Gly-Dab)-Trp-NH2] (Ac-[Nle]EH[dF]G[Dab]W-NH2; lactam 2-6) | 8.05 | 5.00 | 8.40 |  |
| CCCC[C@H](NC(C)=O)C(=O)N[C@H]1CCC(=O)NCC[C@@H](C(N)=O)NC(=O)[C@H](C)NC(=O)[C@@H](Cc2ccccc2)NC(=O)[C@H](Cc2c[nH]cn2)NC1=O [Example 9.33, Ac-Nle-cyclo(Glu-His-D-Phe-Ala-Dab)-NH2] (Ac-[Nle]EH[dF]A[Dab]-NH2; lactam 2-6) | 6.19 | 5.00 | 7.36 |  |
| CCCC[C@H](NC(C)=O)C(=O)N[C@H]1CCC(=O)NCC[C@@H](C(=O)N[C@@H](CCCCN)C(N)=O)NC(=O)[C@H](CCCNC(=N)N)NC(=O)[C@@H](Cc2ccccc2)NC(=O)[C@H](Cc2c[nH]cn2)NC1=O [Example 9.52, Ac-Nle-cyclo(Glu-His-D-Phe-Arg-Dab)-Lys-NH2] (Ac-[Nle]EH[dF]R[Dab]K-NH2; lactam 2-6) |  |  |  | 91% ^ |
| N=C(N)NCCC[C@@H]1NC(=O)[C@@H](Cc2ccccc2)NC(=O)[C@H](Cc2c[nH]cn2)NC(=O)[C@@H](NC(=O)C2CC2)CCC(=O)NCC[C@@H](C(=O)N[C@@H](Cc2c[nH]c3ccccc23)C(N)=O)NC1=O [Example 9.19, cyclo-propanoyl-cyclo(Glu-His-D-Phe-Arg-Dab)-Trp-NH2] | 8.52 |  |  |  |
| N=C(N)NCCC[C@@H]1NC(=O)[C@@H](Cc2ccccc2)NC(=O)[C@H](Cc2c[nH]cn2)NC(=O)[C@@H](NC(=O)CC2CCCC2)CCC(=O)NCC[C@@H](C(=O)N[C@@H](Cc2c[nH]c3ccccc23)C(N)=O)NC1=O [Example 9.21, cyclopentyl acetyl-cyclo(Glu-His-D-Phe-Arg-Dab)-Trp-NH2] | 11.00 |  | 11.40 |  |
| CCCC[C@H](NC(C)=O)C(=O)N[C@H]1CCC(=O)NCC[C@@H](C(=O)N[C@@H](Cc2c[nH]c3ccccc23)C(N)=O)NC(=O)[C@H](C)NC(=O)[C@@H](Cc2ccccc2)NC(=O)[C@H](Cc2c[nH]cn2)NC1=O [Example 9.48, Ac-Nle-cyclo(Glu-His-D-Phe-Ala-Dab)-Trp-NH2] (Ac-[Nle]EH[dF]A[Dab]W-NH2; lactam 2-6) |  |  |  | 72% ^ |
| CCCC[C@H](NC(C)=O)C(=O)N[C@H]1CCC(=O)NCC[C@@H](C(=O)N[C@@H](Cc2c[nH]c3ccccc23)C(N)=O)NC(=O)[C@H](CCCNC(=N)N)NC(=O)[C@@H](Cc2ccccc2)NC(=O)[C@H](CCCCN)NC1=O [Example 9.53, Ac-Nle-cyclo(Glu-Lys-D-Phe-Arg-Dab)-Trp-NH2] |  |  |  | 108% ^ |

The next lines start with the values.

| pKi [1] | pKi [2] | pEC50 [3] | MC-1 Emax (average; cAMP HBL) [3] | Structure (SMILES) |
| --- | --- | --- | --- | --- |
| 8.70 | 5.13 | 9.76 |  | CCCC[C@H](NC(C)=O)C(=O)N[C@H]1CCC(=O)NCC[C@@H](C(=O)N[C@@H](CCCCN)C(N)=O)NC(=O)[C@H](CCCNC(=N)N)NC(=O)[C@@H](Cc2ccccc2)NC(=O)[C@H](Cc2c[nH]cn2)NC1=O [Example 9.39, Ac-Nle-cyclo(Glu-His-D-Phe-Arg-Dab)-Lys-NH2] (Ac-[Nle]EH[dF]R[Dab]K-NH2; lactam 2-6) |
|  |  |  | 100% ^ | CCCC[C@H](NC(C)=O)C(=O)N[C@H]1CCC(=O)NCC[C@@H](C(=O)N[C@@H](Cc2c[nH]c3ccccc23)C(N)=O)NC(=O)[C@H](CCCNC(=N)N)NC(=O)[C@@H](Cc2ccccc2)NC(=O)[C@H](CCCNC(=N)N)NC1=O [Example 9.50, Ac-Nle-cyclo(Glu-Arg-D-Phe-Arg-Dab)-Trp-NH2] |
| 10.19 | 6.07 |  |  | CCCC[C@H](NC(C)=O)C(=O)N[C@H]1CNC(=O)CCC(=O)NCC[C@@H](C(=O)N[C@@H](Cc2c[nH]c3ccccc23)C(N)=O)NC(=O)[C@H](CCCNC(=N)N)NC(=O)[C@@H](Cc2ccccc2)NC(=O)[C@H](Cc2c[nH]cn2)NC1=O [Example 9.43] |
|  |  |  | 73% | CCCC[C@H](NC(C)=O)C(=O)N[C@H]1CCC(=O)NCC[C@@H](C(N)=O)NC(=O)[C@H](C)NC(=O)[C@@H](Cc2ccccc2)NC(=O)[C@H](Cc2c[nH]cn2)NC1=O [Example 9.45, Ac-Nle-cyclo(Glu-His-D-Phe-Ala-Dab)-NH2] (Ac-[Nle]EH[dF]A[Dab]-NH2; lactam 2-6) |
|  |  |  | 97% ^ | CCCC[C@H](NC(C)=O)C(=O)N[C@H]1CCC(=O)NCC[C@@H](C(=O)N[C@@H](Cc2c[nH]c3ccccc23)C(N)=O)NC(=O)[C@H](CCCNC(=N)N)NC(=O)[C@@H](Cc2ccccc2)NC(=O)[C@H](CCCNC(N)=O)NC1=O [Example 9.51, Ac-Nle-cyclo(Glu-Cit-D-Phe-Arg-Dab)-Trp-NH2] |
| 8.40 | 5.44 |  |  | CCCC[C@H](NC(C)=O)C(=O)N[C@H]1CCC(=O)NCC[C@@H](C(N)=O)NC(=O)[C@H](CCCNC(=N)N)NC(=O)[C@@H](Cc2ccccc2)NC(=O)[C@H](CCCN)NC1=O [Example 9.56, Ac-Nle-cyclo(Glu-Orn-D-Phe-Arg-Dab)-NH2] (Ac-[Nle]E[Orn][dF]R[Dab]-NH2; lactam 2-6) |
|  | 5.00 |  | 79% ^ | CCCC[C@H](NC(C)=O)C(=O)N[C@H]1CCC(=O)NCC[C@@H](C(=O)N[C@@H](Cc2c[nH]c3ccccc23)C(N)=O)NC(=O)[C@H](CCCNC(=N)N)NC(=O)[C@@H](Cc2ccccc2)NC(=O)[C@H](Cc2c[nH]cn2)NC1=O [Example 9.31, Ac-Nle-cyclo(Glu-His-D-Phe-Arg-Dab)-Trp-OH] |
| 8.52 | 6.73 |  |  | CCCC[C@H](NC(C)=O)C(=O)N[C@H]1CCC(=O)NCC[C@@H](C(=O)N[C@@H](Cc2c[nH]c3ccccc23)C(N)=O)NC(=O)[C@H](CCCNC(=N)N)NC(=O)[C@@H](Cc2ccccc2)NC(=O)[C@H]2CCCN2C1=O [Example 9.66, Ac-Nle-cyclo(Glu-Pro-D-Phe-Arg-Dab)-Trp-NH2] |
| 5.00 | 5.00 |  |  | CCCC[C@H](NC(C)=O)C(=O)N[C@H]1CCC(=O)NCC[C@@H](C(N)=O)NC(=O)[C@@H](Cc2ccccc2)NC(=O)[C@H](Cc2c[nH]cn2)NC1=O [Example 9.46, Ac-Nle-cyclo(Glu-His-D-Phe-Dab)-NH2] (Ac-[Nle]EH[dF][Dab]-NH2; lactam 2-5) |
| 8.52 | 5.00 |  |  | CCCC[C@H](NC(C)=O)C(=O)N[C@H]1CCC(=O)NCC[C@@H](C(N)=O)NC(=O)[C@H](CCCNC(=N)N)NC(=O)[C@@H](Cc2ccc(C)cc2)NC(=O)[C@H](CCCN)NC1=O [Example 9.63, Ac-Nle-cyclo(Glu-Orn-D-Phe(4-Me)-Arg-Dab)-NH2] (Ac-[Nle]E[Orn][dPhe(4-Me)]R[Dab]-NH2; lactam 2-6) |
|  |  |  | 109% ^ | CCCC[C@H](NC(C)=O)C(=O)N[C@H]1CCC(=O)NCC[C@@H](C(=O)N[C@@H](Cc2c[nH]c3ccccc23)C(N)=O)NC(=O)[C@H](CCCNC(=N)N)NC(=O)[C@@H](Cc2ccccc2)NC(=O)[C@H](CCCN)NC1=O [Example 9.55, Ac-Nle-cyclo(Glu-Orn-D-Phe-Arg-Dab)-Trp-NH2] |
|  |  |  | 85% ^ | CCCC[C@H](NC(C)=O)C(=O)N[C@H]1CCC(=O)NCC[C@@H](C(N)=O)NC(=O)[C@H](CCCNC(=N)N)NC(=O)[C@@H](Cc2ccccc2)NC(=O)[C@H](Cc2c[nH]cn2)NC1=O [Example 9.44, Ac-Nle-cyclo(Glu-His-D-Phe-Arg-Dab)-NH2] (Ac-[Nle]EH[dF]R[Dab]-NH2; lactam 2-6) |
